Results published in US6875743B1, “Cell adhesion inhibitors” (Biogen, Inc., priority 1996, dated 2005).
Blank lines part the entries; values can stand above or below the molecule they belong to. Numbered stars: 1 amine (or outer) side, 2 acyl side, 3 side chain; on linkers, the order of the positions; unused ones are H or OH. Square brackets hold non-standard residues; d marks the D form. Peptide text beside a SMILES is read from it. * marks the point of attachment. X1 = O=C(Cc1ccc(N[*:1])cc1)[*:2]; NH(2-Me-phenyl) = Cc1ccccc1N*; Nva = CCC[CH](N)C(=O)O; PhAc = O=C(Cc1ccccc1)*; Boc = CC(C)(C)OC(=O)*; CO = O=C([*:1])[*:2]; Ahx = NCCCCCC(=O)O

Columns and labels:
VLA4 = target: T1, VLA4 (Homo sapiens, UniProt P05556+P13612); assay: Inhibition of VLA4-dependent adhesion to BSA-CS1; type: cell-based; conditions: binding of BCECF-labelled Ramos cells to BSA-CS1 coated wells, 2 mM MnCl2; read-out: IC50
T1 construct: endogenous in cells; host or cells: Ramos cells

[1] = target: T2, α4β1 integrin, very late antigen-4 (VLA-4) (UniProt P13612 34-1032; P05556 21-798, limits assumed); assay: inhibition of Ramos cell adhesion to BSA-CS1
T2 construct: whole, on cells; also called CD49d/CD29
Method: Following labelling, the cells were washed twice in assay buffer (24 mM TRIS, 137 mM NaCl, 2.7 mM KCl, pH 7.4, containing 0.1% BSA and 2 mM glucose) to remove any cations originating from the culture medium. The cells were then resuspended in assay buffer to 4×10⁶ cells/mL and 2 mM MnCl_2 was added to upregulate VLA4 on the surface of the cells.
Immediately prior to running the assay, we removed the BSA blocking solution from the 96-well plates and washed the wells with 100 μL of assay buffer. We then added to each well 25 μL of test cell adhesion inhibitory compound at 2× the final concentration and 25 μL of the labelled Ramos cells. […] Each concentration of compound was tested in triplicate. The compound and cells are allowed to incubate for 30 minutes at room temperature.
Percent binding is calculated by the formula: […]

T2 sequence (P13612 34-1032 limits assumed, chain 1 of 2): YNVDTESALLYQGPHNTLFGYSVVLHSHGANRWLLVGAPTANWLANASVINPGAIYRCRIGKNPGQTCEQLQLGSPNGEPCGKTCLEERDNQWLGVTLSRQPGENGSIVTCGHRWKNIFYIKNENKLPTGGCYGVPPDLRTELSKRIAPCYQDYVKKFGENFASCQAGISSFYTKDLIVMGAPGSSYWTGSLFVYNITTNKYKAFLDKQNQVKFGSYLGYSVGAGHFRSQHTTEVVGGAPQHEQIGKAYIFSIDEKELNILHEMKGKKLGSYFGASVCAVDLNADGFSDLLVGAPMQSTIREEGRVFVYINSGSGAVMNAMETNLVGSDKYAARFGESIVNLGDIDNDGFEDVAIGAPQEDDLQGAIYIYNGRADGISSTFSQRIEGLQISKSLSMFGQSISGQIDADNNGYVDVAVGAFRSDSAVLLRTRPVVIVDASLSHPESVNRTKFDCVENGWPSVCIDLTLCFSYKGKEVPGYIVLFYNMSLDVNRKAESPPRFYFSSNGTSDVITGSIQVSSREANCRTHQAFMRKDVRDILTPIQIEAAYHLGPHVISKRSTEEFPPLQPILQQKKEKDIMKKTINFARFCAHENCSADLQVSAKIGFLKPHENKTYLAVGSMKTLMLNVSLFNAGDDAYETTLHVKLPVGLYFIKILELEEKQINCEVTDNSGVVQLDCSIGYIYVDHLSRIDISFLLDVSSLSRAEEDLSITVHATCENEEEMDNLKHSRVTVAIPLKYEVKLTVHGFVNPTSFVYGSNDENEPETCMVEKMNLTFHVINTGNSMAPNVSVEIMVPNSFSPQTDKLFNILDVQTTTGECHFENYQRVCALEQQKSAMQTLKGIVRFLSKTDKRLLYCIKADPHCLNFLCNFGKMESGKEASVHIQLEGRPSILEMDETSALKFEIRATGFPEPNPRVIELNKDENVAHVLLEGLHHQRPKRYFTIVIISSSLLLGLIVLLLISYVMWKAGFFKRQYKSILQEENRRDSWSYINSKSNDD
T2 sequence (P05556 21-798 limits assumed, chain 2 of 2): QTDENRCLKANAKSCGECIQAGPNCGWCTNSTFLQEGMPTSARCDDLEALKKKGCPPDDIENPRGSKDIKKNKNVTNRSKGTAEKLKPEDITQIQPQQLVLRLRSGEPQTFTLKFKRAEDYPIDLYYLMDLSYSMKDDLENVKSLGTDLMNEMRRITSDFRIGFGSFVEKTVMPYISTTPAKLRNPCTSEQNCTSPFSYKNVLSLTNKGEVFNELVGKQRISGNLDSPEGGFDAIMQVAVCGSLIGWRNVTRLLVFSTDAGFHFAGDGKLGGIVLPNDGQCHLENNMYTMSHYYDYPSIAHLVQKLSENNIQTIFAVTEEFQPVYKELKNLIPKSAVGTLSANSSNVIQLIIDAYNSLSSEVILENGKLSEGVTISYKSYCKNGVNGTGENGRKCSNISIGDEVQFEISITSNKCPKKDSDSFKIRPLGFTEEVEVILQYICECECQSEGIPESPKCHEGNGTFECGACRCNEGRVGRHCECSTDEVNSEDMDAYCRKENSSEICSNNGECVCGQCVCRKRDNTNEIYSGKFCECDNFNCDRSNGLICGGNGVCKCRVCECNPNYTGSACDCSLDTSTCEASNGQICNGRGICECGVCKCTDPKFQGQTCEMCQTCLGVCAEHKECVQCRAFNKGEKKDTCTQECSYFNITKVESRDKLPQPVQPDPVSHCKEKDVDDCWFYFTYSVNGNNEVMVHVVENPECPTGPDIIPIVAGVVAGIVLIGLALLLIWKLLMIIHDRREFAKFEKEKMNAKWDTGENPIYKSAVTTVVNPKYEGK
T1 sequence (P13612 34-1032): as the sequence (P13612 34-1032 limits assumed, chain 1 of 2) above
T1 sequence (P05556 21-798): as the sequence (P05556 21-798 limits assumed, chain 2 of 2) above

IC50 (VLA4): < 50 nM
Molecule: Cc1ccccc1NC(=O)Nc1ccc(CC(=O)N[C@@H](CCC(N)=O)C(=O)N[C@@H](CC(=O)O)C(=O)N[C@H](C(N)=O)[C@@H](C)O)cc1 [Compound 302]

IC50 (VLA4): < 50 nM
Molecule: CSCC[C@H](NC(=O)Cc1ccc(NC(=O)Nc2ccccc2C)cc1)C(=O)N[C@@H](CC(=O)O)C(=O)N[C@H](C(N)=O)[C@@H](C)O [Compound 224]

IC50 (VLA4): > 10000 nM
Molecule: CCC(C)C(NC(=O)C(CC(=O)O)NC(=O)C(CC(C)C)NC(=O)Cc1ccccc1)C(=O)NC (stereo not drawn) [Compound 55] (PhAc-Leu-Asp-Ile-NHMe; configuration not given here)

IC50 (VLA4): < 50 nM
Molecule: Cc1ccccc1NC(=O)Nc1ccc(CC(=O)N2CCC[C@H]2C(=O)N[C@@H](CCC(=O)O)C(=O)N[C@@H](CC(=O)O)C(N)=O)cc1 [Compound 312]

IC50 (VLA4): 50 to 10000 nM
Molecule: CCC(C)C(NC(=O)C(CC(=O)O)NC(=O)C(CC(C)C)NC(=O)C1CCc2ccccc2N1)C(=O)NC (centres unmarked) [Compound 58]

IC50 (VLA4): 50 to 10000 nM
Molecule: CCC(C)C(NC(=O)C(CC(=O)O)NC(=O)C(CC(C)C)NC(=O)c1ccc2ccccc2n1)C(=O)NC (centres unmarked) [Compound 57]

IC50 (VLA4): < 50 nM
Molecule: CSCC[C@H](NC(=O)Cc1ccc(NC(=O)Nc2ccccc2C)cc1)C(=O)N[C@@H](CC(=O)O)C(=O)N[C@H](CCC(=O)O)C(N)=O [Compound 227]

IC50 (VLA4): < 50 nM
Molecule: Cc1ccccc1NC(=O)Nc1ccc(CC(=O)N[C@@H](CO)C(=O)N[C@@H](CC(=O)O)C(=O)N[C@H](C(N)=O)C(C)C)cc1 [Compound 277]

IC50 (VLA4): < 50 nM
Molecule: CSCC[C@H](NC(=O)[C@H](CC(=O)O)NC(=O)[C@H](CCC(N)=O)NC(=O)Cc1ccc(NC(=O)Nc2ccccc2C)cc1)C(N)=O [Compound 303]

IC50 (VLA4): < 50 nM
Molecule: Cc1ccccc1NC(=O)Nc1ccc(CC(=O)N2CCC[C@H]2C(=O)N[C@@H](CC(=O)O)C(=O)N[C@@H](CCC(=O)O)C(N)=O)cc1 [Compound 245]

IC50 (VLA4): < 50 nM
Molecule: CC[C@H](C)[C@H](NC(=O)[C@H](CC(=O)O)NC(=O)[C@H](CC(C)C)NC(=O)Cc1ccc(NC(=O)Nc2ccccc2C)cc1)C(=O)O [Compound 345]

IC50 (VLA4): > 10000 nM
Molecule: CC(C)C[C@H](NC(=O)Nc1cnc2ccccc2n1)C(=O)N[C@@H](CC(=O)O)C(=O)N[C@H](C(=O)O)C(C)C [Compound 380]

IC50 (VLA4): < 50 nM
Molecule: Cc1ccccc1NC(=O)Nc1ccc(CC(=O)N[C@@H](CC(C)C)C(=O)N[C@@H](CC(=O)O)C(=O)N[C@H](CC(C)C)C(N)=O)cc1 [Compound 233]

IC50 (VLA4): > 10000 nM
Molecule: CC(C)CC(NC(=O)CCc1ccccc1)C(=O)NC(CC(=O)O)C(=O)NCC1CCCCC1 (centres unmarked) [Compound 24]

IC50 (VLA4): > 10000 nM
Molecule: COc1cccc(CC(=O)N[C@@H](CC(C)C)C(=O)N[C@@H](CC(=O)O)C(=O)N[C@H](C(=O)O)C(C)C)c1 [Compound 367]

IC50 (VLA4): < 50 nM
Molecule: Cc1ccccc1NC(=O)Nc1ccc(CC(=O)N[C@H](C(=O)N[C@@H](CC(=O)O)C(=O)N[C@@H](Cc2c[nH]c3ccccc23)C(N)=O)[C@@H](C)O)cc1 [Compound 261]

IC50 (VLA4): > 10000 nM
Molecule: CCCC(NC(=O)C(CC(=O)O)NC(=O)C(CC(C)C)NC(=O)Cc1ccccc1)C(=O)NC (stereo not drawn) [Compound 51] (PhAc-Leu-Asp-[Nva]-NHMe; configuration not given here)

IC50 (VLA4): > 10000 nM
Molecule: CC(C)CC(NC(=O)CCCc1ccccc1)C(=O)NC(CC(=O)O)C(=O)NCC1CCCCC1 (centres unmarked) [Compound 25]

IC50 (VLA4): > 10000 nM
Molecule: Cc1ccccc1NC(=O)Nc1ccc(CC(=O)N[C@@H](CC(C)C)C(=O)N2CCC[C@H]2C(=O)N[C@H](C(=O)N[C@@H](CC(=O)O)C(=O)O)C(C)C)cc1 [Compound 341] ({NH(2-Me-phenyl)-CO}-[X1]LPVD-OH)

IC50 (VLA4): > 10000 nM
Molecule: CC(C)CC(NC(=O)c1cc2ccccc2cn1)C(=O)NC(CC(=O)O)C(=O)NCC1CCCCC1 (centres unmarked) [Compound 11]

IC50 (VLA4): < 50 nM
Molecule: Cc1ccccc1NC(=O)Nc1ccc(CC(=O)N[C@H](CC(C)C)C(=O)N[C@@H](CC(=O)O)C(=O)N[C@H](CC(N)=O)C(N)=O)cc1 [Compound 293]

IC50 (VLA4): < 50 nM
Molecule: Cc1ccccc1NC(=O)Nc1ccc(CC(=O)NC(CCC(N)=O)C(=O)NC(CC(=O)O)C(=O)NC(CO)C(N)=O)cc1 (centres unmarked) [Compound 307]

IC50 (VLA4): < 50 nM
Molecule: Cc1ccccc1NC(=O)Nc1ccc(CC(=O)N[C@@H](CC(C)C)C(=O)N[C@@H](CC(=O)O)C(=O)N[C@@H](CC(C)C)C(N)=O)cc1 [Compound 231]

IC50 (VLA4): > 10000 nM
Molecule: CC(C)C[C@H](NC(=O)Cc1cccs1)C(=O)N[C@@H](CC(=O)O)C(=O)N[C@H](C(=O)O)C(C)C [Compound 404]

IC50 (VLA4): < 50 nM
Molecule: Cc1ccccc1NC(=O)Nc1ccc(CC(=O)N[C@@H](CC(C)C)C(=O)N[C@@H](CC(=O)O)C(=O)N[C@H](CC(N)=O)C(N)=O)cc1 [Compound 237]

IC50 (VLA4): < 50 nM
Molecule: Cc1ccccc1NC(=O)Nc1ccc(CC(=O)N[C@H](C(=O)N[C@@H](CC(=O)O)C(=O)N[C@H](CC(C)C)C(N)=O)[C@@H](C)O)cc1 [Compound 255]

IC50 (VLA4): > 10000 nM
Molecule: CC(C)CC(NC(=O)CCc1ccc(O)cc1)C(=O)NC(CC(=O)O)C(=O)NCC1CCCCC1 (centres unmarked) [Compound 14]

IC50 (VLA4): > 10000 nM
Molecule: Cc1ccccc1NC(=O)Nc1ccc(CC(=O)N[C@H](C(=O)N[C@@H](CC(C)C)C(=O)N2CCC[C@H]2C(=O)N[C@@H](CC(=O)O)C(=O)O)C(C)C)cc1 [Compound 339] ({NH(2-Me-phenyl)-CO}-[X1]VLPD-OH)

IC50 (VLA4): > 10000 nM
Molecule: CC(C)C(NC(=O)C(CC(=O)O)NC(=O)C(CC1CCCCC1)NC(=O)c1cc2ccccc2cn1)C(=O)O (centres unmarked) [Compound 85]

IC50 (VLA4): < 50 nM
Molecule: Cc1ccccc1NC(=O)Nc1ccc(CC(=O)N[C@H](C(=O)N[C@@H](CC(=O)O)C(=O)N[C@@H](CC(C)C)C(N)=O)[C@@H](C)O)cc1 [Compound 253]

IC50 (VLA4): < 50 nM
Molecule: CSCC[C@H](NC(=O)[C@H](CC(=O)O)NC(=O)[C@@H](CC(C)C)NC(=O)Cc1ccc(NC(=O)Nc2ccccc2C)cc1)C(N)=O [Compound 292]

IC50 (VLA4): > 10000 nM
Molecule: CCCc1ccc(C(=O)N[C@@H](CC(C)C)C(=O)N[C@@H](CC(=O)O)C(=O)N[C@H](C(=O)O)C(C)C)cc1 [Compound 374]

IC50 (VLA4): > 10000 nM
Molecule: CCC(C)C(NC(=O)CCc1ccc(O)cc1)C(=O)NC(CC(=O)O)C(=O)NCC(C)C (centres unmarked) [Compound 17]

IC50 (VLA4): < 50 nM
Molecule: Cc1ccccc1NC(=O)Nc1ccc(CC(=O)N[C@H](C(=O)N[C@@H](CCC(=O)O)C(=O)N[C@@H](CC(=O)O)C(N)=O)[C@@H](C)O)cc1 [Compound 314]

IC50 (VLA4): 50 to 10000 nM
Molecule: CNC(=O)[C@H](CCC(=O)O)NC(=O)[C@@H]1CCCN1C(=O)Cc1ccc(NC(=O)Nc2ccccc2C)cc1 [Compound 413]

IC50 (VLA4): > 10000 nM
Molecule: CC(C)C[C@H](NC(=O)c1cc2ccccc2cn1)C(=O)NC(Cc1nnn[nH]1)C(=O)N[C@H](C(=O)O)C(C)C (some centres unmarked) [Compound 10]

IC50 (VLA4): 50 to 10000 nM
Molecule: Cc1ccccc1NC(=O)Nc1ccc(CC(=O)N[C@@H](CCCCNC(=O)CCCCCN)C(=O)N[C@@H](CC(=O)O)C(=O)N[C@H](C(=O)N2CCC[C@H]2C(=O)O)C(C)C)cc1 [Compound 202] ({NH(2-Me-phenyl)-CO}-[X1]K(Ahx)DVP-OH)

IC50 (VLA4): > 10000 nM
Molecule: CC(C)C[C@H](NC(=O)c1ccc(C(C)C)cc1)C(=O)N[C@@H](CC(=O)O)C(=O)N[C@H](C(=O)O)C(C)C [Compound 405]

IC50 (VLA4): < 50 nM
Molecule: Cc1ccccc1NC(=O)Nc1ccc(CC(=O)N[C@H](C(=O)N[C@@H](CC(=O)O)C(=O)N[C@@H](CCC(=O)O)C(N)=O)[C@@H](C)O)cc1 [Compound 256]

IC50 (VLA4): > 10000 nM
Molecule: CC(C)C[C@H](NC(=O)c1ccc2c(c1)CCO2)C(=O)N[C@@H](CC(=O)O)C(=O)N[C@H](C(=O)O)C(C)C [Compound 387]

IC50 (VLA4): < 50 nM
Molecule: Cc1ccccc1NC(=O)Nc1ccc(CC(=O)N[C@@H](CCC(=O)O)C(=O)N[C@@H](CC(=O)O)C(=O)N[C@H](CO)C(N)=O)cc1 [Compound 273]

IC50 (VLA4): > 10000 nM
Molecule: CC(C)CC(NC(=O)C(Cc1ccc(O)cc1)NC(=O)OC(C)(C)C)C(=O)NC(CC(=O)O)C(=O)NC(C(=O)O)C(C)C (centres unmarked) [Compound 66] (Boc-YLDV-OH; configuration not given here)

IC50 (VLA4): < 50 nM
Molecule: Cc1ccccc1NC(=O)Nc1ccc(CC(=O)N[C@@H](CC(C)C)C(=O)N[C@@H](CC(=O)O)C(=O)N[C@H](C(N)=O)[C@@H](C)O)cc1 [Compound 235]

IC50 (VLA4): < 50 nM
Molecule: Cc1ccccc1NC(=O)Nc1ccc(CC(=O)N[C@@H](CO)C(=O)N[C@@H](CC(=O)O)C(=O)N[C@@H](CC(C)C)C(N)=O)cc1 [Compound 276]

IC50 (VLA4): < 50 nM
Molecule: CSCC[C@H](NC(=O)Cc1ccc(NC(=O)Nc2ccccc2C)cc1)C(=O)N[C@@H](CC(=O)O)C(=O)N[C@H](CC(C)C)C(N)=O [Compound 222]

IC50 (VLA4): < 50 nM
Molecule: Cc1ccccc1NC(=O)Nc1ccc(CC(=O)N[C@@H](CCC(=O)O)C(=O)N[C@@H](CC(=O)O)C(=O)N[C@H](CC(C)C)C(N)=O)cc1 [Compound 266]

IC50 (VLA4): < 50 nM
Molecule: Cc1ccccc1NC(=O)Nc1ccc(CC(=O)N[C@H](CC(C)C)C(=O)N[C@@H](CC(=O)O)C(=O)N[C@H](C(N)=O)C(C)C)cc1 [Compound 288]

IC50 [1]: < 50 nM
Molecule: {3‑methoxy‑4‑(N'-phenylurea)phenylacetyl}-MDVP-OH [Compound 2]

IC50 [1]: < 50 nM
Molecule: {4‑(N'-2-hydroxyphenylurea)phenylacetyl}-MDVP-OH [Compound 146]

IC50 [1]: > 10000 nM
B1: Compound 167 (peptide)
peptide: Boc-LDVM-OMe
SMILES: COC(=O)[C@H](CCSC)NC(=O)[C@@H](NC(=O)[C@H](CC(=O)O)NC(=O)[C@H](CC(C)C)NC(=O)OC(C)(C)C)C(C)C
